# According to US20180272034A1, “USE OF CSA COMPOUNDS TO PREVENT MICROBIAL BUILD-UP OR FOULING OF MEDICAL IMPLANTS” (BRIGHAM YOUNG UNIVERSITY, priority 2017, published 2018):
# Key:
# Candida auris isolates = test: Antifungal MIC, CLSI M27-A3; assay type: cell-based
# Protocol: The antifungal effectiveness of CSA-131 was tested against 100 Candida auris isolates. The C. auris isolates were from all over the world and covered known C. auris clades. The selection included isolated known to have elevated MIC values against fluconazole, the echinocandins, and/or amphotericin B.
# Testing was performed according to the standards of the Clinical and Laboratory Standards Institute reference methodology M27-A3 (as of 2017). CSA-131 was dissolved in DMSO and diluted as described in M27-A3 to give a final DMSO concentration of <1%. Dilution plates were stored at −70° C. until used and were used within one week of being produced. All results were read visually after 24 hours of incubation at the lowest drug concentration at which there was a 50% decrease in growth by visual inspection. Quality control isolates C. parapsilosis ATCC 22019 and C. krusei ATCC 6258 were included on each day of testing although there are no standard QC values for these isolates against this compound. The MIC values for ATCC 22019 and ATCC 6258 remained within a tight range of 1-2 dilutions over the course of the study.
# [1] = Pre-term lambs intubated with coated endotracheal tubes, tracheal mucosal integrity; assay type: in vivo
# Excerpt: Pre-term lambs were intubated using endotracheal tubes (ETTs) including a coating having CSA-131. Tracheal mucosal integrity of the lambs was compared to the tracheal mucosal integrity of a control group (intubated with uncoated ETTs). […] FIG. 2 illustrates the histological appearance of tracheas of the premature lambs that were intubated for three days. […] An area of denuded epithelium (arrowhead), and accumulation of white blood cells (arrow) are highlighted.
# Streptococcus Pneumoniae = test: Broth microdilution MIC, HABP/VABP clinical isolates; assay type: cell-based; conditions: Streptococcus Pneumoniae (10)
# Protocol: (§1) CSA-131 was tested in vitro against a set of clinical isolates representing bacterial species commonly associated with hospital-acquired bacterial pneumonia (HABP) or ventilator-associated bacterial pneumonia (VABP). Antimicrobial susceptibility testing for 74 clinical isolates was performed. Broth microdilution using frozen-form MIC panels consisted of three media types: cation-adjusted Mueller-Hinton broth (CA-HMB), CA-HMB supplemented with 2.5-5% lysed horse blood for S. pneumoniae and Haemophilus test media (HTM) for Haemophilus spp.
# [2] = tested on: All (74) clinical isolates; test: as above; assay type: cell-based
# Protocol: as §1
# Enterobacteriaceae = test: as above; assay type: cell-based; conditions: Enterobacteriaceae (22)
# Protocol: as §1
# Staphylococcus aureus = test: as above; assay type: cell-based; conditions: Staphylococcus aureus (10)
# Protocol: as §1
# Haemophilus spp. = test: as above; assay type: cell-based
# Protocol: as §1
# [3] = 100 C. auris isolates, 50% decrease in growth, 24 hours
# [4] = fluconazole Resistant isolates, 69
# [5] = fluconazole Susceptible isolates, 30
# [6] = isolates with elevated echinocandin MICs, 7
structure (smiles),measurement,setting,value
CCCCCCCCCCCCNCCC[C@@H](C)[C@H]1CC[C@H]2[C@@H]3[C@H](OCCCN)C[C@@H]4C[C@H](OCCCN)CC[C@]4(C)[C@H]3C[C@H](OCCCN)[C@]12C.Cl.Cl.Cl.Cl [CSA-131],No. of Isolates at MIC 0.016,Candida auris isolates; 100 C. auris isolates,0
same,No. of Isolates at MIC 0.03,Candida auris isolates; 100 C. auris isolates,0
same,No. of Isolates at MIC 0.0625,Candida auris isolates; 100 C. auris isolates,0
same,No. of Isolates at MIC 0.125,Candida auris isolates; 100 C. auris isolates,0
same,No. of Isolates at MIC 0.25,Candida auris isolates; 100 C. auris isolates,0
same,No. of Isolates at MIC 0.5,Candida auris isolates; 100 C. auris isolates,39
same,No. of Isolates at MIC 1,Candida auris isolates; 100 C. auris isolates,61
same,No. of Isolates at MIC 2,Candida auris isolates; 100 C. auris isolates,0
same,No. of Isolates at MIC <0.016,Candida auris isolates; 100 C. auris isolates,0
same,No. of Isolates at MIC >2,Candida auris isolates; 100 C. auris isolates,0
same,MIC50,Candida auris isolates; [3],1 µg/mL
same,MIC90,Candida auris isolates; [3],1 µg/mL
same,MIC Mode,Candida auris isolates; [3],1 µg/mL
same,MIC Range,"Candida auris isolates; 100 C. auris isolates, 50% decrease in growth, 24 hours, in µg/mL",0.5-1
same,activity against C. auris collection,"Candida auris isolates; 100 isolates, 4 clades",showed activity against all C. auris
same,MIC50,"Candida auris isolates; Clade 1, 47 isolates",1 µg/mL
same,MIC90,"Candida auris isolates; Clade 1, 47 isolates",1 µg/mL
same,MIC Mode,"Candida auris isolates; Clade 1, 47 isolates",1 µg/mL
same,MIC Range,"Candida auris isolates; Clade 1, 47 isolates",0.5 to 1 µg/mL
same,MIC50,"Candida auris isolates; Clade 2, 11 isolates",1 µg/mL
same,MIC90,"Candida auris isolates; Clade 2, 11 isolates",1 µg/mL
same,MIC Mode,"Candida auris isolates; Clade 2, 11 isolates",1 µg/mL
same,MIC Range,"Candida auris isolates; Clade 2, 11 isolates",0.5 to 1 µg/mL
same,MIC50,"Candida auris isolates; Clade 3, 39 isolates",1 µg/mL
same,MIC90,"Candida auris isolates; Clade 3, 39 isolates",1 µg/mL
same,MIC Mode,"Candida auris isolates; Clade 3, 39 isolates",1 µg/mL
same,MIC Range,"Candida auris isolates; Clade 3, 39 isolates",0.5 to 1 µg/mL
same,MIC50,"Candida auris isolates; Clade 4, 3 isolates",0.5 µg/mL
same,MIC90,"Candida auris isolates; Clade 4, 3 isolates",1 µg/mL
same,MIC Mode,"Candida auris isolates; Clade 4, 3 isolates",0.5 µg/mL
same,MIC Range,"Candida auris isolates; Clade 4, 3 isolates",0.5 to 1 µg/mL
same,MIC50,Candida auris isolates; [4],1 µg/mL
same,MIC90,Candida auris isolates; [4],1 µg/mL
same,MIC Mode,Candida auris isolates; [4],1 µg/mL
same,MIC Range,Candida auris isolates; [4],0.5 to 1 µg/mL
same,MIC50,Candida auris isolates; [5],0.5 µg/mL
same,MIC90,Candida auris isolates; [5],1 µg/mL
same,MIC Range,Candida auris isolates; [5],0.5 to 1 µg/mL
same,MIC50,Candida auris isolates; [6],1 µg/mL
same,MIC90,Candida auris isolates; [6],1 µg/mL
same,MIC Mode,Candida auris isolates; [6],1 µg/mL
same,MIC Range,"Candida auris isolates; isolates with elevated echinocandin MICs, 7, in µg/mL",0.5-1
same,tracheal mucosal integrity vs control group (uncoated ETTs),[1]; pre-term lambs intubated with ETTs coated with CSA-131 coating,markedly improved mucosal integrity
same,"histological appearance of trachea (FIG. 2, image b)","[1]; premature lambs intubated for three days, CSA-131 coated ETT","the epithelium is healthy and intact, and the subjacent connective tissue region is not inflamed"
same,MIC50,Streptococcus Pneumoniae,4 µg/mL
same,MIC90,Streptococcus Pneumoniae,4 µg/mL
same,No. of isolates at MIC 2 μg/ml,Streptococcus Pneumoniae,0 (0%)
same,No. of isolates at MIC 4 μg/ml,Streptococcus Pneumoniae,10
same,No. of isolates at MIC 8 μg/ml,Streptococcus Pneumoniae,0
same,cumulative % inhibited at 2 μg/ml,Streptococcus Pneumoniae,0 (0%)
same,cumulative % inhibited at 4 μg/ml,Streptococcus Pneumoniae,100%
same,cumulative % inhibited at 8 μg/ml,Streptococcus Pneumoniae,100%
same,MIC50,[2],4 µg/mL
same,MIC90,[2],8 µg/mL
same,No. of isolates at MIC 2 μg/ml,[2],23
same,No. of isolates at MIC 4 μg/ml,[2],40
same,No. of isolates at MIC 8 μg/ml,[2],11
same,cumulative % inhibited at 2 μg/ml,[2],31.1%
same,cumulative % inhibited at 4 μg/ml,[2],85.1%
same,cumulative % inhibited at 8 μg/ml,[2],100%
same,MIC50,Enterobacteriaceae,4 µg/mL
same,MIC90,Enterobacteriaceae,4 µg/mL
same,No. of isolates at MIC 2 μg/ml,Enterobacteriaceae,4
same,No. of isolates at MIC 4 μg/ml,Enterobacteriaceae,18
same,No. of isolates at MIC 8 μg/ml,Enterobacteriaceae,0
same,cumulative % inhibited at 2 μg/ml,Enterobacteriaceae,18.2%
same,cumulative % inhibited at 4 μg/ml,Enterobacteriaceae,100%
same,cumulative % inhibited at 8 μg/ml,Enterobacteriaceae,100%
same,MIC50,Staphylococcus aureus,2 µg/mL
same,MIC90,Staphylococcus aureus,2 µg/mL
same,No. of isolates at MIC 2 μg/ml,Staphylococcus aureus,10
same,No. of isolates at MIC 4 μg/ml,Staphylococcus aureus,0
same,No. of isolates at MIC 8 μg/ml,Staphylococcus aureus,0
same,cumulative % inhibited at 2 μg/ml,Staphylococcus aureus,100%
same,cumulative % inhibited at 4 μg/ml,Staphylococcus aureus,100%
same,cumulative % inhibited at 8 μg/ml,Staphylococcus aureus,100%
same,MIC50,Haemophilus spp.; Haemophilus spp. (10),8 µg/mL
same,MIC90,Haemophilus spp.; Haemophilus spp. (10),8 µg/mL
same,No. of isolates at MIC 4 μg/ml,Haemophilus spp.; Haemophilus spp. (10),0 (0%)
same,No. of isolates at MIC 8 μg/ml,Haemophilus spp.; Haemophilus spp. (10),10
same,cumulative % inhibited at 2 μg/ml,Haemophilus spp.; Haemophilus spp. (10),0 (0%)
same,cumulative % inhibited at 4 μg/ml,Haemophilus spp.; Haemophilus spp. (10),0 (0%)
same,cumulative % inhibited at 8 μg/ml,Haemophilus spp.; Haemophilus spp. (10),100%
same,No. of isolates at MIC 2 μg/ml,"Haemophilus spp.; Haemophilus spp. (10): 8 H. influenza, 2 H. parainfluenzae",0 (0%)
